Test results from the NIST ThermoML archive (doi:10.1016/j.jct.2007.07.005).

Experiment: xn = mol fraction of the nth substance listed
Details: Fluid (supercritical or subcritical phases), vibrating tube

CCCCCO [pentan-1-ol] + O=C=O
Details	mass density [kg/m3]
352.79 K, 11040 kPa, x2 = 0.4651	785.81
352.79 K, 12030 kPa, x2 = 0.4651	787.74
352.79 K, 13014 kPa, x2 = 0.4651	789.67
352.79 K, 13996 kPa, x2 = 0.4651	791.51
352.79 K, 15009 kPa, x2 = 0.4651	793.37
352.79 K, 16021 kPa, x2 = 0.4651	795.22
352.79 K, 17023 kPa, x2 = 0.4651	797.01
352.79 K, 18036 kPa, x2 = 0.4651	798.78
352.79 K, 19033 kPa, x2 = 0.4651	800.49
352.79 K, 20034 kPa, x2 = 0.4651	802.15
352.79 K, 21019 kPa, x2 = 0.4651	803.78
352.79 K, 22005 kPa, x2 = 0.4651	805.38
352.79 K, 23048 kPa, x2 = 0.4651	807.02
352.79 K, 24005 kPa, x2 = 0.4651	808.54
352.8 K, 9062 kPa, x2 = 0.3624	787.17
352.8 K, 10017 kPa, x2 = 0.3624	788.44
352.8 K, 10962 kPa, x2 = 0.3624	789.67
352.8 K, 12014 kPa, x2 = 0.3624	790.98
352.8 K, 13057 kPa, x2 = 0.3624	792.31
352.8 K, 13992 kPa, x2 = 0.3624	793.46
352.8 K, 14992 kPa, x2 = 0.3624	794.66
352.8 K, 16050 kPa, x2 = 0.3624	795.91
352.8 K, 16062 kPa, x2 = 0.8573	704.48
352.8 K, 17018 kPa, x2 = 0.3624	797.04
352.8 K, 17045 kPa, x2 = 0.8573	717.71
352.8 K, 17979 kPa, x2 = 0.3624	798.17
352.8 K, 18036 kPa, x2 = 0.8573	728.91
352.8 K, 19024 kPa, x2 = 0.8573	738.63
352.8 K, 19050 kPa, x2 = 0.3624	799.37
352.8 K, 20029 kPa, x2 = 0.3624	800.46
352.8 K, 20047 kPa, x2 = 0.8573	747.71
352.8 K, 21012 kPa, x2 = 0.8573	755.39
352.8 K, 21035 kPa, x2 = 0.3624	801.59
352.8 K, 21985 kPa, x2 = 0.3624	802.63
352.8 K, 22013 kPa, x2 = 0.8573	762.78
352.8 K, 23021 kPa, x2 = 0.3624	803.75
352.8 K, 23034 kPa, x2 = 0.8573	769.78
352.8 K, 24022 kPa, x2 = 0.3624	804.82
352.8 K, 24038 kPa, x2 = 0.8573	776.16
352.8 K, 25026 kPa, x2 = 0.3624	805.9
352.8 K, 25052 kPa, x2 = 0.8573	782.21
352.81 K, 3095 kPa, x2 = 0.0816	772.79
352.81 K, 4022 kPa, x2 = 0.0816	773.74
352.81 K, 5003 kPa, x2 = 0.0816	774.75
352.81 K, 5979 kPa, x2 = 0.0816	775.73
352.81 K, 7007 kPa, x2 = 0.0816	776.72
352.81 K, 7981 kPa, x2 = 0.0816	777.7
352.81 K, 9053 kPa, x2 = 0.0816	778.72
352.81 K, 10025 kPa, x2 = 0.0816	779.66
352.81 K, 11031 kPa, x2 = 0.0816	780.6
352.81 K, 11999 kPa, x2 = 0.0816	781.51
352.81 K, 13023 kPa, x2 = 0.0816	782.45
352.81 K, 14012 kPa, x2 = 0.0816	783.34
352.81 K, 15005 kPa, x2 = 0.7274	763.67
352.81 K, 15006 kPa, x2 = 0.0816	784.24
352.81 K, 15032 kPa, x2 = 0.9216	609.93
352.81 K, 15993 kPa, x2 = 0.0816	785.1
352.81 K, 16001 kPa, x2 = 0.9216	637.91
352.81 K, 16021 kPa, x2 = 0.7274	769.33
352.81 K, 17044 kPa, x2 = 0.9216	660.91
352.81 K, 17045 kPa, x2 = 0.7274	774.53
352.81 K, 17064 kPa, x2 = 0.0816	786
352.81 K, 18013 kPa, x2 = 0.0816	786.86
352.81 K, 18017 kPa, x2 = 0.9216	678.45
352.81 K, 18023 kPa, x2 = 0.7274	779.16
352.81 K, 18992 kPa, x2 = 0.0816	787.69
352.81 K, 19030 kPa, x2 = 0.9216	693.91
352.81 K, 19050 kPa, x2 = 0.7274	783.67
352.81 K, 19999 kPa, x2 = 0.7274	787.59
352.81 K, 20017 kPa, x2 = 0.9216	707.27
352.81 K, 20032 kPa, x2 = 0.0816	788.58
352.81 K, 20998 kPa, x2 = 0.0816	789.4
352.81 K, 21041 kPa, x2 = 0.9216	719.46
352.81 K, 21063 kPa, x2 = 0.7274	791.77
352.81 K, 22012 kPa, x2 = 0.0816	790.22
352.81 K, 22020 kPa, x2 = 0.7274	795.33
352.81 K, 22043 kPa, x2 = 0.9216	730.24
352.81 K, 23032 kPa, x2 = 0.9216	740.03
352.81 K, 23038 kPa, x2 = 0.7274	798.99
352.81 K, 23043 kPa, x2 = 0.0816	791.09
352.81 K, 23982 kPa, x2 = 0.7274	802.22
352.81 K, 24064 kPa, x2 = 0.0816	791.93
352.81 K, 25028 kPa, x2 = 0.0816	792.72
352.81 K, 25068 kPa, x2 = 0.7274	805.8
352.86 K, 7013 kPa, x2 = 0.1347	777.29
352.86 K, 8003 kPa, x2 = 0.1347	778.24
352.86 K, 9042 kPa, x2 = 0.1347	779.29
352.86 K, 9997 kPa, x2 = 0.1347	780.21
352.86 K, 11043 kPa, x2 = 0.1347	781.23
352.86 K, 12025 kPa, x2 = 0.1347	782.2
352.86 K, 13003 kPa, x2 = 0.1347	783.16
352.86 K, 14006 kPa, x2 = 0.1347	784.13
352.86 K, 15015 kPa, x2 = 0.1347	785.07
352.86 K, 16005 kPa, x2 = 0.1347	786.01
352.86 K, 17031 kPa, x2 = 0.1347	786.94
352.86 K, 18022 kPa, x2 = 0.1347	787.86
352.86 K, 19009 kPa, x2 = 0.1347	788.74
352.86 K, 20022 kPa, x2 = 0.1347	789.63
352.86 K, 21024 kPa, x2 = 0.1347	790.52
352.86 K, 21995 kPa, x2 = 0.1347	791.37
352.86 K, 23030 kPa, x2 = 0.1347	792.28
352.86 K, 24029 kPa, x2 = 0.1347	793.15
352.86 K, 25004 kPa, x2 = 0.1347	793.98
352.88 K, 14062 kPa, x2 = 0.6054	787.97
352.88 K, 15034 kPa, x2 = 0.6054	790.53
352.88 K, 16029 kPa, x2 = 0.6054	793.07
352.88 K, 17048 kPa, x2 = 0.6054	795.6
352.88 K, 18046 kPa, x2 = 0.6054	798.05
352.88 K, 19026 kPa, x2 = 0.6054	800.32
352.88 K, 20030 kPa, x2 = 0.6054	802.6
352.88 K, 21058 kPa, x2 = 0.6054	804.93
352.88 K, 22056 kPa, x2 = 0.6054	807.03
352.88 K, 23049 kPa, x2 = 0.6054	809.11
352.88 K, 24065 kPa, x2 = 0.6054	811.21
352.88 K, 25092 kPa, x2 = 0.6054	813.29
362.58 K, 20013 kPa, x2 = 0.9757	578.28
362.58 K, 21042 kPa, x2 = 0.9757	600.7
362.58 K, 22020 kPa, x2 = 0.9757	619.68
362.58 K, 23010 kPa, x2 = 0.9757	637.03
362.58 K, 24034 kPa, x2 = 0.9757	653.33
362.58 K, 25047 kPa, x2 = 0.9757	667.94
362.59 K, 517 kPa, x2 = 0	759.7
362.59 K, 1023 kPa, x2 = 0	760.25
362.59 K, 2005 kPa, x2 = 0	761.26
